Consider 17 molecules from patent EP4813463A2, “TYK2 INHIBITORS AND COMPOSITIONS AND METHODS THEREOF” (Lynk Pharmaceuticals Co. Ltd., priority 2023, dated 2024).

Read-outs that look alike come from different tables or passages of the source. Some results are limits rather than exact numbers.

For experiment [1], the target named is T1, JAK1-JH2 domain (Homo sapiens, UniProt P23458).
T1 construct: JAK1-JH2 domain or TYK2-JH2 domain enzyme in assay buffer
Kind of experiment: Binding activity test for JH2 domain of JAK1 (Tb-antibody/tracer FRET). The protocol: Binding Activity test for JH2 domain of JAK1 and TYK2 […] Add 8μL/well in echo source plate, echo will add 75nL/well with 3-fold serial dilution for 11 points in assay plate. 75nL DMSO for high control and low control. […] For low control, add 5μL/well assay buffer. And then spin down at 1000rpm and centrifuge for 30 seconds. After enzyme system prepared, add 5μL of Tb-antibody solution into each well of assay plate. Spin down at 1000 rpm and centrifuge for 30sec. After Tb-antibody added, also add 5μL of tracer into the assay plate. Spin down at 1000rpm and centrifuge for 30sec. Incubate for […] at 25°C firstly and then continue to incubate the plate at 4°C overnight. Read by envision in FRET mode. The Luminescence value was recorded by a multi-label reader Envision (PerkinElmer). […] Table 2. IC50 on JH2 domain activity (nM)

For experiment [2], the system named is Ba/F3-FL-TYK2-P760L cells. Kind of experiment: Anti-proliferative assay in engineered Ba/F3 cells (Cell-Titer Glo, 72 h). It is filed as cell-based. The settings on record: Mus musculus, concentration that causes 50% growth inhibition, read-out: Baf3-FL-T2P760L. In outline:
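IC50 from luminescent ATP viability after 72 h compound exposure (37 °C, 5% CO2), % inhibition normalised to DMSO-treated cells minus medium blank. IL-3-free Ba/F3-FL-TYK2-P760L (Tel-JAK fusion) cells in 10% FBS RPMI-1640 received 9 three-fold doses, top 20 µM, 0.1% DMSO.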

Experiment [3] has as its target T2, TYK2-JH2 domain (Homo sapiens, UniProt P29597).
T2 construct: JAK1-JH2 domain or TYK2-JH2 domain enzyme in assay buffer
Kind of experiment: Binding activity test for JH2 domain of TYK2 (Tb-antibody/tracer FRET). In outline:
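IC50 values (nM) come from TR-FRET readings taken after a 25°C incubation followed by overnight at 4°C. Each well held JH2 domain protein, Tb-antibody, tracer and test compound titrated in 11 threefold steps, with DMSO high and low controls.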

[4] abbreviates: JH2 domain enzyme; 60 min at 25°C, then 4°C overnight; read-out: JAK1 JH2 Binding IC50.
[5] abbreviates: BaF3, 72 h, 72 h compound treatment.
Setting [6] is: JH2 domain enzyme; 60 min at 25°C, then 4°C overnight; read-out: TYK2 JH2 Binding IC50.
Where [7] appears, read: ratio of JAK1 JH2 to TYK2 JH2 binding IC50.

T1 sequence (P23458 583-855 limits assumed): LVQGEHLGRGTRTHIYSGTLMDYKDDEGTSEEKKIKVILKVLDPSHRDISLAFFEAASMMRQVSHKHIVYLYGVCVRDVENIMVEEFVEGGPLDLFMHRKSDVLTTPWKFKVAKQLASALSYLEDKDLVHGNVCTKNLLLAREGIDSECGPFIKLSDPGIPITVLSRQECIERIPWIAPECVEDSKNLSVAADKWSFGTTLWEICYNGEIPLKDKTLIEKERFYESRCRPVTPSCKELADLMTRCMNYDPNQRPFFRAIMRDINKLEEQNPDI
T2 sequence (P29597 589-875 limits assumed): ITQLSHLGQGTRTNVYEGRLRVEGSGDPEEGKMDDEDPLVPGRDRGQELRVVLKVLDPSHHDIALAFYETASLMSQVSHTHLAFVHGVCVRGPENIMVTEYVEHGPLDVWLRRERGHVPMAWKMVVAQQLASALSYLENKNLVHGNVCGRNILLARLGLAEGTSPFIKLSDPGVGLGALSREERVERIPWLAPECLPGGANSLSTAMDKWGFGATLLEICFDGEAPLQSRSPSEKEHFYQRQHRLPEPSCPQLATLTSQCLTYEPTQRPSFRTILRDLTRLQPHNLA

For the molecule `[2H]C([2H])([2H])NC(=O)c1cnc(NC(=O)C2CC2)cc1Nc1cnn2ccc(C(C)(C)O)c(C)c12` [Example 34, 6-(Cyclopropanecarboxamido)-4-((5-(2-hydroxypropan-2-yl)-4-methylpyrazolo[1,5-a]pyridin-3-yl)amino)-N-(methyl-d3)nicotinamide], the IC50 was > 298 nM in experiment [1] (setting [4]), > 5000 nM in experiment [2] (setting [5]) and 161 nM in experiment [3] (setting [6]). For the same molecule, the JAK1/TYK2 selectivity in experiment [3] (setting [7]) is recorded as >1.85.
For the molecule `[2H]C([2H])([2H])NC(=O)c1cnc(NC(=O)[C@@H]2C[C@@H]2F)cc1Nc1cnn2cnc(OC)c(OC)c12` [Example 36, 4-((4,5-Dimethoxypyrazolo[1,5-c]pyrimidin-3-yl)amino)-6-((1S,2S)-2-fluorocyclopropane-1-carboxamido)-N-(methyl-d3)nicotinamide], the results for the IC50 in experiment [1] (setting [4]), in experiment [2] (setting [5]) and in experiment [3] (setting [6]) were 255 nM, 1770 nM and 4.55 nM, respectively. For the same molecule, in experiment [3] (setting [7]), the JAK1/TYK2 selectivity came to 56.0.
For the molecule `[2H]C([2H])([2H])NC(=O)c1cnc(NC(=O)[C@@H]2C[C@@H]2F)cc1Nc1cnn2cnc(C(O)C(F)(F)F)c(OC)c12` (some centres unmarked) [Example 39, 6-((18,25)-2-fluorocyclopropane-1-carboxamido)-4-((4-methoxy-5-(2,2,2-trifluoro-1-hydroxyethyl)pyrazolo[1,5-c]pyrimidin-3-yl)amino)-N-(methyl-d3)nicotinamide], the IC50 in experiment [1] (read-out: JAK1 JH2 Binding IC50; JH2 domain enzyme; 60 min at 25°C, then 4°C overnight) was > 298 nM; in experiment [2] (BaF3, 72 h compound treatment), 350 nM; in experiment [3] (read-out: TYK2 JH2 Binding IC50; JH2 domain enzyme; 60 min at 25°C, then 4°C overnight) it was 0.561 nM. In addition, the JAK1/TYK2 selectivity in experiment [3] (setting [7]) is listed as >532.1.
Regarding `[2H]C([2H])([2H])NC(=O)c1cnc(NC(=O)C2CC2)cc1Nc1cnn2ccccc12` [Example 40, 6-(Cyclopropanecarboxamido)-N-(methyl-d3)-4-(pyrazolo[1,5-a]pyridin-3-ylamino)nicotinamide], the IC50 was > 298 nM in experiment [1] (setting [4]), > 5000 nM in experiment [2] (setting [5]) and 186 nM in experiment [3] (setting [6]). Further, the JAK1/TYK2 selectivity in experiment [3] (setting [7]) is recorded as >1.6.
In the same order, the values of `[2H]C([2H])([2H])NC(=O)c1cnc(NC(=O)C2CC2)cc1Nc1cnn2ccc(C(O)C(F)(F)F)cc12` (centres unmarked) [Example 41, 6-(Cyclopropanecarboxamido)-N-(methyl-d3)-4-((5-(2,2,2-trifluoro-1-hydroxyethyl)pyrazolo[1,5-a]pyridin-3-yl)amino)nicotinamide] are > 298 nM, > 5000 nM, 46.8 nM and >6.37.
As for `[2H]C([2H])([2H])NC(=O)c1cnc(NC(=O)C2CC2)cc1Nc1cnn2cccc(OC)c12` [Example 44, 6-(Cyclopropanecarboxamido)-4-((4-methoxypyrazolo[1,5-a]pyridin-3-yl)amino)-N-(methyl-d3)nicotinamide], the IC50 in experiment [1] (setting [4]) is 60.2 nM; in experiment [2] (setting [5]), 356 nM; in experiment [3] (setting [6]) it was 2.8 nM. In addition, the JAK1/TYK2 selectivity in experiment [3] (setting [7]) stood at 21.5.
Regarding `COC(=O)c1cnc(NC(=O)C2CC2)cc1Nc1nn(C)c2ccc(C(OC)C(F)(F)F)c(OC)c12` (centres unmarked) [Example 45, Methyl 6-(cyclopropanecarboxamido)-4-((4-methoxy-1-methyl-5-(2,2,2-trifluoro-1-methoxyethyl)-1H-indazol-3-yl)amino)nicotinate], the IC50 in experiment [1] (setting [4]) was determined as 64.3 nM; in experiment [2] (setting [5]), 8.61 nM; in experiment [3] (setting [6]) it was 0.209 nM. The JAK1/TYK2 selectivity in experiment [3] (setting [7]) is recorded as 307.51.
For `COC(=O)c1cnc(NC(=O)C2CC2)cc1Nc1nn(C)c2ccc([C@@H](OC)C(F)(F)F)c(OC)c12` [Example 45A, Methyl (R)-6-(cyclopropanecarboxamido)-4-((4-methoxy-1-methyl-5-(2,2,2-trifluoro-1-methoxyethyl)-1H-indazol-3-yl)amino)nicotinate], in that order: > 298 nM, 110 nM, 0.826 nM and >361.38.
As for `[2H]C([2H])([2H])NC(=O)c1cnc(NC(=O)C2CC2)cc1Nc1nn(C)c2ccc(C(OC)C(F)(F)F)c(OC)c12` (centres unmarked) [Example 46, 6-(Cyclopropanecarboxamido)-4-((4-methoxy-1-methyl-5-(2,2,2-trifluoro-1-methoxyethyl)-1H-indazol-3-yl)amino)-N-(methyl-d3)nicotinamide], the values for the IC50 in experiment [1] (setting [4]), in experiment [2] (setting [5]) and in experiment [3] (setting [6]) were 6.81 nM, 0.618 nM and 0.113 nM, respectively. In addition, the JAK1/TYK2 selectivity in experiment [3] (setting [7]) is recorded as 60.31.
As to `[2H]C([2H])([2H])O[C@@H](c1ccn2ncc(Nc3cc(NC(=O)C4CC4)ncc3C(=O)OC)c2c1OC)C(F)(F)F` [Example 47, Methyl (S)-6-(cyclopropanecarboxamido)-4-((4-methoxy-5-(2,2,2-trifluoro-1-(methoxy-d3)ethyl)pyrazolo[1,5-a]pyridin-3-yl)amino)nicotinate], the IC50 in experiment [1] (setting [4]) was 46.5 nM; in experiment [2] (setting [5]) it was 70.6 nM; in experiment [3] (setting [6]) it was 0.221 nM. Further, the JAK1/TYK2 selectivity in experiment [3] (setting [7]) is listed as 210.20.
For `COC(=O)c1cnc(NC(=O)C2CC2)cc1Nc1nn(C)c2ccc([C@@H](O)C(F)(F)F)c(OC)c12` [Example 48B, Methyl (R)-6-(cyclopropanecarboxamido)-4-((4-methoxy-1-methyl-5-(2,2,2-trifluoro-1-hydroxyethyl)-1H-indazol-3-yl)amino)nicotinate], in that order: 85.9 nM, 162 nM, 1.68 nM and 51.13.
`[2H]C([2H])([2H])O[C@H](c1ccc2c(c(Nc3cc(NC(=O)C4CC4)ncc3C(=O)OC)nn2C)c1OC)C(F)(F)F` [Example 50A, Methyl (R)-6-(cyclopropanecarboxamido)-4-((4-methoxy-1-methyl-5-(2,2,2-trifluoro-1-(methoxy-d3)ethyl)-1H-indazol-3-yl)amino)nicotinate]: the IC50 in experiment [1] (setting [4]) was > 298 nM; in experiment [2] (setting [5]) it was 131 nM; in experiment [3] (setting [6]) it was 1.04 nM. For the same molecule, the JAK1/TYK2 selectivity in experiment [3] (setting [7]) was >287.30.
Regarding `[2H]C([2H])([2H])NC(=O)c1nnc(NC(=O)C2CC2)cc1Nc1nn(C)c2ccc([C@@H](OC)C(F)(F)F)c(OC)c12` [Example 51A, (R)-6-(cyclopropanecarboxamido)-4-((4-methoxy-1-methyl-5-(2,2,2-trifluoro-1-methoxyethyl)-1H-indazol-3-yl)amino)-N-(methyl-d3)pyridazine-3-carboxamide], the IC50 in experiment [1] (setting [4]) turned out to be 6.29 nM; in experiment [2] (setting [5]), 12.3 nM; in experiment [3] (setting [6]) it was 0.154 nM. For the same molecule, the JAK1/TYK2 selectivity in experiment [3] (setting [7]) turned out to be 40.84.
Consider `[2H]C([2H])([2H])n1nc(Nc2cc(NC(=O)C3CC3)ncc2C(=O)OC)c2c(OC)c([C@H](OC)C(F)(F)F)ccc21` [Example 52A, Methyl (S)-6-(cyclopropanecarboxamido)-4-((4-methoxy-1-(methyl-d3)-5-(2,2,2-trifluoro-1-methoxyethyl)-1H-indazol-3-yl)amino)nicotinate], for which the results for the IC50 in experiment [1] (setting [4]), in experiment [2] (setting [5]) and in experiment [3] (setting [6]) were 41.1 nM, 3.56 nM and 0.082 nM, respectively. Further, the JAK1/TYK2 selectivity in experiment [3] (setting [7]) turned out to be 501.71.
Regarding `[2H]C([2H])([2H])n1nc(Nc2cc(NC(=O)C3CC3)ncc2C(=O)OC)c2c(OC)c([C@@H](OC)C(F)(F)F)ccc21` [Example 52B, Methyl (R)-6-(cyclopropanecarboxamido)-4-((4-methoxy-1-(methyl-d3)-5-(2,2,2-trifluoro-1-methoxyethyl)-1H-indazol-3-yl)amino)nicotinate], the IC50 in experiment [1] (setting [4]) is > 298 nM; in experiment [2] (setting [5]) it was 119 nM; in experiment [3] (setting [6]), 0.616 nM. The JAK1/TYK2 selectivity in experiment [3] (setting [7]) is on record as >484.60.
As to `[2H]C([2H])([2H])NC(=O)c1cnc(NC(=O)C2CC2)cc1Nc1nn(C)c2ccc([C@@H](OC([2H])([2H])[2H])C(F)(F)F)c(OC)c12` [Example 55B, (R)-6-(cyclopropanecarboxamido)-4-((4-methoxy-1-methyl-5-(2,2,2-trifluoro-1-(methoxy-d3)ethyl)-1H-indazol-3-yl)amino)-N-(methyl-d3)nicotinamide], the figures for the IC50 in experiment [1] (setting [4]), in experiment [2] (setting [5]) and in experiment [3] (setting [6]) were 12.3 nM, 16.2 nM and 0.08 nM, respectively. In addition, the JAK1/TYK2 selectivity in experiment [3] (setting [7]) is recorded as 153.54.
In the case of `COC(=O)c1cnc(NC(=O)C2CC2)nc1Nc1cccc(-c2ncn(C)n2)c1OC` [Example 56, Methyl 2-(cyclopropanecarboxamido)-4-((2-methoxy-3-(1-methyl-1H-1,2,4-triazol-3-yl)phenyl)amino)pyrimidine-5-carboxylate], the figures for the IC50 in experiment [1] (setting [4]), in experiment [2] (setting [5]) and in experiment [3] (setting [6]) were 52.6 nM, 148 nM and 0.967 nM, respectively. Besides, in experiment [3] (setting [7]), the JAK1/TYK2 selectivity came out at 54.42.
